# In patent US20060069132A1, “Azolecarboxamide herbicides” (priority 2004, published 2006):
# Tests used:
# morningglory = assay: Test B pre-/postemergence herbicide test; assay type: in vivo, Ipomoea coccinea; settings: for Plant response rating (0 to 100 scale), Morningglory: 0 is no effect, 100 is complete control; for Morningglory plant response rating: postemergence
# Outline: (§1)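 Formulation: non-phytotoxic solvent mix with surfactant. Timing: preemergence on seed and postemergence on 2–18 cm plants, applied concurrently. Readout after 13–15 d greenhouse: visual 0–100 control rating against controls.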
# velvetleaf = assay: Test B pre-/postemergence herbicide test; assay type: in vivo, Abutilon theophrasti; settings: for Plant response rating (0 to 100 scale), Velvetleaf: 0 is no effect, preemergence; for Velvetleaf plant response rating: postemergence
# Outline: (§2)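 Seeds were planted and treated preemergence with compounds formulated in a non-phytotoxic solvent mixture containing surfactant, while plants at the 1- to 4-leaf stage (2 to 18 cm) received postemergence sprays. Flooded paddy plants were grown to the 2-leaf stage. After 13 to 15 days in a greenhouse, injury was visually rated 0–100 against untreated controls.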
# large crabgrass = assay: Test B pre-/postemergence herbicide test; assay type: in vivo, Digitaria sanguinalis; settings: for Plant response rating (0 to 100 scale), Crabgrass, Large: 0 is no effect; for Crabgrass, Large plant response rating: postemergence
# Outline: as §2
# pigweed = assay: Test B pre-/postemergence herbicide test; assay type: in vivo, Amaranthus retroflexus; settings: for Plant response rating (0 to 100 scale), Pigweed: 0 is no effect; for Pigweed plant response rating: postemergence
# Outline: as §2
# blackgrass = assay: Test B postemergence herbicide test; assay type: in vivo, Alopecurus myosuroides; settings: postemergence
# Outline: (§3)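 Scale 0–100: zero equals no visible effect, 100 complete control, judged by eye relative to controls. Timing: 13 to 15 days in greenhouse post-treatment. Growth stage at spraying: two leaves (paddy) or one to four leaves, 2–18 cm (postemergence).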
# corn = assay: Test B pre-/postemergence herbicide test; assay type: in vivo, Zea mays; settings: for Plant response rating (0 to 100 scale), Corn: 0 is no effect; for Corn plant response rating: postemergence
# Outline: as §2
# wheat = assay: Test B postemergence herbicide test; assay type: in vivo, Triticum aestivum; parameters: key to Wheat plant response rating: 0 = no effect, 100 = complete control; settings: postemergence
# Outline: (§4)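 Greenhouse test; postemergence application to plants at 1–4 leaves (2–18 cm); paddy species at 2 leaves; evaluated visually vs controls at 13–15 days; scale 0–100 (100 = complete control).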
# giant foxtail = assay: Test B pre-/postemergence herbicide test; assay type: in vivo, Setaria faberi; settings: for Plant response rating (0 to 100 scale), Foxtail, Giant: 0 is no effect; for Foxtail, Giant plant response rating: postemergence
# Outline: as §2
# barnyardgrass [1] = assay: Test B pre-/postemergence herbicide test; assay type: in vivo, Echinochloa crus-galli; settings: for Plant response rating (0 to 100 scale), Barnyardgrass: 0 is no effect; for Barnyardgrass plant response rating: postemergence
# Outline: as §1
# lambsquarters = assay: Test B pre-/postemergence herbicide test; assay type: in vivo, Chenopodium album; settings: for Plant response rating (0 to 100 scale), Lambsquarters: 0 is no effect; for Lambsquarters plant response rating: postemergence
# Outline: as §2
# [2] = tested on: small flower umbrella sedge; assay: Test B flooded paddy test; assay type: in vivo, Cyperus difformis; settings: 1000 g ai/ha, scale 0 to 100 (0 no effect, 100 complete control)
# Outline: as §3
# Surinam grass = assay: Test B pre-/postemergence herbicide test; assay type: in vivo, Urochloa decumbens; settings: for Plant response rating (0 to 100 scale), Surinam Grass: 0 is no effect; for Surinam Grass plant response rating: postemergence
# Outline: as §2
# ducksalad = assay: Test B flooded paddy test; assay type: in vivo, Heteranthera limosa; settings: 1000 g ai/ha, scale 0 to 100 (0 no effect, 100 complete control)
# Outline: as §3
# rice = assay: Test B flooded paddy test; assay type: in vivo, Oryza sativa; settings: 1000 g ai/ha, scale 0 to 100 (0 no effect, 100 complete control)
# Outline: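 Visual ratings, 0 (no effect) to 100 (complete control), made versus controls after 13–15 d greenhouse. Paddy plants treated at 2-leaf stage; postemergence plants at 1- to 4-leaf stage, 2–18 cm tall.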
# wild oat = assay: Test B postemergence herbicide test; assay type: in vivo, Avena fatua; settings: postemergence
# Outline: as §4
# cocklebur = assay: Test B pre-/postemergence herbicide test; assay type: in vivo, Xanthium strumarium; settings: for Plant response rating (0 to 100 scale), Cocklebur: 0 is no effect; for Cocklebur plant response rating: postemergence
# Outline: as §1
# barnyardgrass [3] = assay: Test B flooded paddy test; assay type: in vivo, Echinochloa crus-galli; settings: 1000 g ai/ha, scale 0 to 100 (0 no effect, 100 complete control)
# Outline: as §3
# [4] = 125 g ai/ha, visual rating, scale 0 (no effect) to 100 (complete control)
# [5] = 125 g ai/ha, 100 is complete control
# [6] = 125 g ai/ha, 100 is complete control, preemergence
# [7] = 500 g ai/ha, visual rating, 0 = no effect, 100 = complete control, preemergence
# [8] = 500 g ai/ha, scale 0 to 100, 0 is no effect, 100 is complete control
smiles,measurement,setting,value
CCOC(=O)c1ccc(F)c(NC(=S)c2cc(C(C)(C)C)nn2CC)c1 [Compound 346],"Plant response rating (0 to 100 scale), Morningglory","morningglory; 125 g ai/ha, preemergence",0
same,Morningglory plant response rating,morningglory; [4],10
same,Morningglory plant response rating,"morningglory; 31 g ai/ha, scale 0 to 100",0
same,"Plant response rating (0 to 100 scale), Velvetleaf",velvetleaf; [5],0
same,Velvetleaf plant response rating,velvetleaf; [4],10
same,Velvetleaf plant response rating,"velvetleaf; 31 g ai/ha, scale 0 to 100",0
same,"Plant response rating (0 to 100 scale), Crabgrass, Large",large crabgrass; [6],60
same,"Crabgrass, Large plant response rating",large crabgrass; [4],0
same,"Crabgrass, Large plant response rating","large crabgrass; 31 g ai/ha, scale 0 to 100",0
same,"Plant response rating (0 to 100 scale), Pigweed",pigweed; [6],0
same,Pigweed plant response rating,pigweed; [4],70
same,Pigweed plant response rating,"pigweed; 31 g ai/ha, scale 0 to 100",60
same,Blackgrass plant response rating,blackgrass; [4],40
same,Blackgrass plant response rating,"blackgrass; 31 g ai/ha, scale 0 to 100",30
same,"Plant response rating (0 to 100 scale), Corn",corn; [6],0
same,Corn plant response rating,corn; [4],0
same,Corn plant response rating,"corn; 31 g ai/ha, scale 0 to 100",0
same,Wheat plant response rating,wheat; [4],20
same,Wheat plant response rating,"wheat; 31 g ai/ha, scale 0 to 100",10
same,"Plant response rating (0 to 100 scale), Foxtail, Giant",giant foxtail; [6],50
same,"Foxtail, Giant plant response rating",giant foxtail; [4],20
same,"Foxtail, Giant plant response rating","giant foxtail; 31 g ai/ha, scale 0 to 100",0
same,"Plant response rating (0 to 100 scale), Barnyardgrass",barnyardgrass [1]; [6],0
same,Barnyardgrass plant response rating,barnyardgrass [1]; [4],20
same,Barnyardgrass plant response rating,"barnyardgrass [1]; 31 g ai/ha, scale 0 to 100",0
same,"Plant response rating (0 to 100 scale), Lambsquarters",lambsquarters; [6],0
same,Lambsquarters plant response rating,lambsquarters; [4],30
same,Lambsquarters plant response rating,"lambsquarters; 31 g ai/ha, scale 0 to 100",0
same,"Sedge, Umbrella plant response rating",[2],80
same,"Plant response rating (0 to 100 scale), Surinam Grass",Surinam grass; [6],10
same,Surinam Grass plant response rating,Surinam grass; [4],10
same,Surinam Grass plant response rating,"Surinam grass; 31 g ai/ha, scale 0 to 100",0
same,Ducksalad plant response rating,ducksalad,60
same,Rice plant response rating,rice,40
same,"Oat, Wild plant response rating",wild oat; [4],40
same,"Oat, Wild plant response rating","wild oat; 31 g ai/ha, scale 0 to 100",30
same,"Plant response rating (0 to 100 scale), Cocklebur",cocklebur; [6],0
same,Cocklebur plant response rating,cocklebur; [4],30
same,Cocklebur plant response rating,"cocklebur; 31 g ai/ha, scale 0 to 100",10
same,Barnyardgrass plant response rating,barnyardgrass [3],40
CCn1nc(C(C)(C)C)cc1C(=O)Nc1cc(OCCF)ccc1F [Compound 350],"Plant response rating (0 to 100 scale), Morningglory","morningglory; 125 g ai/ha, preemergence",0
same,Morningglory plant response rating,morningglory; [4],0
same,"Plant response rating, Morningglory",morningglory; [7],0
same,"Plant response rating (0 to 100 scale), Velvetleaf",velvetleaf; [5],0
same,Velvetleaf plant response rating,velvetleaf; [4],0
same,Velvetleaf plant response rating,velvetleaf; [8],10
same,"Plant response rating (0 to 100 scale), Crabgrass, Large",large crabgrass; [6],0
same,"Crabgrass, Large plant response rating",large crabgrass; [4],0
same,"Plant response rating, Crabgrass, Large",large crabgrass; [7],0
same,"Crabgrass, Large plant response rating",large crabgrass; [8],10
same,"Plant response rating (0 to 100 scale), Pigweed",pigweed; [6],0
same,Pigweed plant response rating,pigweed; [4],0
same,"Plant response rating, Pigweed",pigweed; [7],0
same,Pigweed plant response rating,pigweed; [8],60
same,Blackgrass plant response rating,blackgrass; [4],0
same,Blackgrass plant response rating,blackgrass; [8],0
same,"Plant response rating (0 to 100 scale), Corn",corn; [6],0
same,Corn plant response rating,corn; [4],0
same,"Plant response rating, Corn",corn; [7],0
same,Corn plant response rating,corn; [8],20
same,Wheat plant response rating,wheat; [4],0
same,Wheat plant response rating,wheat; [8],0
same,"Plant response rating (0 to 100 scale), Foxtail, Giant",giant foxtail; [6],0
same,"Foxtail, Giant plant response rating",giant foxtail; [4],0
same,"Plant response rating, Foxtail, Giant",giant foxtail; [7],0
same,"Foxtail, Giant plant response rating",giant foxtail; [8],30
same,"Plant response rating (0 to 100 scale), Barnyardgrass",barnyardgrass [1]; [6],0
same,Barnyardgrass plant response rating,barnyardgrass [1]; [4],0
same,"Plant response rating, Barnyardgrass",barnyardgrass [1]; [7],0
same,Barnyardgrass plant response rating,barnyardgrass [1]; [8],0
same,"Plant response rating (0 to 100 scale), Lambsquarters",lambsquarters; [6],0
same,Lambsquarters plant response rating,lambsquarters; [4],0
same,"Plant response rating, Lambsquarters",lambsquarters; [7],0
same,Lambsquarters plant response rating,lambsquarters; [8],10
same,"Sedge, Umbrella plant response rating",[2],0
same,"Plant response rating (0 to 100 scale), Surinam Grass",Surinam grass; [6],0
same,Surinam Grass plant response rating,Surinam grass; [4],0
same,"Plant response rating, Surinam Grass",Surinam grass; [7],0
same,Surinam Grass plant response rating,Surinam grass; [8],10
same,Ducksalad plant response rating,ducksalad,0
same,Rice plant response rating,rice,0
same,"Oat, Wild plant response rating",wild oat; [4],0
same,"Oat, Wild plant response rating",wild oat; [8],0
same,"Plant response rating (0 to 100 scale), Cocklebur",cocklebur; [6],0
same,Cocklebur plant response rating,cocklebur; [4],0
same,"Plant response rating, Cocklebur",cocklebur; [7],0
same,Cocklebur plant response rating,cocklebur; [8],20
same,Barnyardgrass plant response rating,barnyardgrass [3],0
